Data: US10329302B2, “Bicyclic-fused heteroaryl or aryl compounds” (Pfizer Inc., priority 2014, dated 2019)

target: human IRAK4 FL (Full Length) (Homo sapiens (Human), UniProt Q9NWZ3); experiment: IRAK4 Enzymatic DELFIA Assay, Protocol A; format: biochemical; details: human IRAK4 FL, 0.6 mM ATP (KM); read-out: IRAK4 DELFIA Protocol A IC50
Sequence (Q9NWZ3 whole entry): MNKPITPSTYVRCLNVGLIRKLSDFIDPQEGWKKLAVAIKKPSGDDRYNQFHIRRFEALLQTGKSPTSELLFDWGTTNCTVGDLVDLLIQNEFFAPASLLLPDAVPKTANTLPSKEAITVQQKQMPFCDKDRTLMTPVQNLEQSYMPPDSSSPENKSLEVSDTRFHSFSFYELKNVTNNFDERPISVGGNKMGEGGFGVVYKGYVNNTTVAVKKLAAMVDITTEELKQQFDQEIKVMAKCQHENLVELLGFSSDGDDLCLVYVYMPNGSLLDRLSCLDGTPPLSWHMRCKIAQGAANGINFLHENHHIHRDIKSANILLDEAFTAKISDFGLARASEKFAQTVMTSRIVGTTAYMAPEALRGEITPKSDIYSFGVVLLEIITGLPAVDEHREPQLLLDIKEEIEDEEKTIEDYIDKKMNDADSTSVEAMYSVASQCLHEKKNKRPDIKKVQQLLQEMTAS

Compared with `Cc1cnc(OC[C@@H]2CCC(=O)N2)c2cc(OC(C)C)c(C(N)=O)cc12` [Example 05, 4-methyl-1-{[(2S)-5-oxopyrrolidin-2-yl]methoxy}-7-(propan-2-yloxy)isoquinoline-6-carboxamide], `CC(C)Oc1cc2c(OC[C@@H]3CCC(=O)N3)nccc2cc1C(=O)O` [Example 169, 1-{[(2S)-5-oxopyrrolidin-2-yl]methoxy}-7-(propan-2-yloxy)isoquinoline-6-carboxylic acid] is 11-fold higher in IC50: 84 nM for the first, 890 nM for the second. The first is the more potent here.

Going from `CC(C)Oc1cc2c(OC[C@@H]3CCN(C(=O)CC#N)C3)ccnc2cc1C(N)=O` [Example 23, 4-{[(3R)-1-(cyanoacetyl)pyrrolidin-3-yl]methoxy}-6-(propan-2-yloxy)quinoline-7-carboxamide] to `CC(C)Oc1cc2c(OCC3CN(C(=O)CC#N)C3)ccnc2cc1C(N)=O` [Example 60, 4-{[1-(cyanoacetyl)azetidin-3-yl]methoxy}-6-(propan-2-yloxy)quinoline-7-carboxamide], the IC50 falls from 656 nM to 8.9 nM (74-fold). The second is the more potent here.

Compared with `CC(C)Oc1cc2c(OCC3CN(C(=O)CC#N)C3)nccc2cc1C(N)=O` [Example 69, 1-{[1-(cyanoacetyl)azetidin-3-yl]methoxy}-7-(propan-2-yloxy)isoquinoline-6-carboxamide], `CC(C)Oc1cc2c(OC[C@@H]3CN(C)C(=O)N3)nccc2cc1C(N)=O` [Example 185, 1-{[(4S)-1-methyl-2-oxoimidazolidin-4-yl]methoxy}-7-(propan-2-yloxy)isoquinoline-6-carboxamide] is 4-fold higher in IC50: 29 nM for the first, 116 nM for the second. The first is the more potent here.

First: CC(C)Oc1cc2c(OCC3COCC(=O)N3)nccc2cc1C(N)=O (stereo not drawn) [Example 116, 1-[(5-oxomorpholin-3-yl)methoxy]-7-(propan-2-yloxy)isoquinoline-6-carboxamide]
Second: CC(C)Oc1cc2c(OCC3CCS(=O)(=O)N3)nccc2cc1C(N)=O (stereo not drawn) [Example 143, 1-[(1,1-dioxido-1,2-thiazolidin-3-yl)methoxy]-7-(propan-2-yloxy)isoquinoline-6-carboxamide]
The IC50 of the first is 17-fold lower: 146 nM for the first, 2540 nM for the second.

First: CC(C)Oc1cc2c(OCC3NC(=O)C4CCCCC34)nccc2cc1C(N)=O (stereo not drawn) [Example 118, 1-[(3-oxooctahydro-1H-isoindol-1-yl)methoxy]-7-(propan-2-yloxy)isoquinoline-6-carboxamide]
Second: CC(C)Oc1cc2c(OC[C@H]3NC(=O)C[C@@H]3N)nccc2cc1C(N)=O [Example 149, 1-{[(2S,3S)-3-amino-5-oxopyrrolidin-2-yl]methoxy}-7-(propan-2-yloxy)isoquinoline-6-carboxamide]
The IC50 of the first is 1.5-fold higher: 162 nM for the first, 105 nM for the second. The second is the more potent here.

Going from `NC(=O)c1cc2ccnc(OC[C@@H]3CCC(=O)N3)c2cc1OC1CCC1` [Example 120, 7-(cyclobutyloxy)-1-{[(2S)-5-oxopyrrolidin-2-yl]methoxy}isoquinoline-6-carboxamide] to `NC(=O)c1cc2ccnc(OC[C@@H]3CCC(=O)N3)c2cc1OC(F)F` [Example 129, 7-(difluoromethoxy)-1-{[(2S)-5-oxopyrrolidin-2-yl]methoxy}isoquinoline-6-carboxamide], the IC50 falls from 1140 nM to 231 nM (4.9-fold). The second is the more potent here.

First: CC(C)Oc1cc2c(OC[C@]34CCC[C@H]3CNC4)nccc2cc1C(N)=O [Example 123, 1-[(3aR,6aR)-hexahydrocyclopenta[c]pyrrol-3a(1H)-ylmethoxy]-7-(propan-2-yloxy)isoquinoline-6-carboxamide]
Second: CC(C)Oc1cc2c(OC[C@]3(C)CCC(=O)N3)nccc2cc1C(N)=O [Example 126, 1-{[(2S)-2-methyl-5-oxopyrrolidin-2-yl]methoxy}-7-(propan-2-yloxy)isoquinoline-6-carboxamide]
The IC50 of the first is 18-fold higher: 747 nM for the first, 42 nM for the second. The second is the more potent here.

Compared with `CC(C)Oc1cc2c(OC[C@@H]3C[C@@](C)(F)C(=O)N3)nccc2cc1C(N)=O` [Example 133, 1-{[(2S,4R)-4-fluoro-4-methyl-5-oxopyrrolidin-2-yl]methoxy}-7-(propan-2-yloxy)isoquinoline-6-carboxamide], `CC(C)Oc1cc2c(OC[C@@H]3C[C@@](F)(C(C)(C)O)C(=O)N3)nccc2cc1C(N)=O` [Example 171, 1-{[(2S,4R)-4-fluoro-4-(2-hydroxypropan-2-yl)-5-oxopyrrolidin-2-yl]methoxy}-7-(propan-2-yloxy)isoquinoline-6-carboxamide] is 1.7-fold lower in IC50: 175 nM for the first, 101 nM for the second. The second is the more potent here.

First: CC(C)Oc1cc2c(OC[C@@H]3C[C@H](C(C)(C)O)C(=O)N3)nccc2cc1C(N)=O [Example 137, 1-{[(2S,4R)-4-(2-hydroxypropan-2-yl)-5-oxopyrrolidin-2-yl]methoxy}-7-(propan-2-yloxy)isoquinoline-6-carboxamide]
Second: CC(C)Oc1cc2c(OC[C@@H]3C[C@H](CO)C(=O)N3)nccc2cc1C(N)=O [Example 165, 1-{[(2S,4R)-4-(hydroxymethyl)-5-oxopyrrolidin-2-yl]methoxy}-7-(propan-2-yloxy)isoquinoline-6-carboxamide]
The IC50 of the first is 5.5-fold lower: 98 nM for the first, 541 nM for the second. The first is the more potent here.

Compared with `CC(C)Oc1cc2c(OCC3CCC(=O)NC3)nccc2cc1C(N)=O` (stereo not drawn) [Example 142, 1-[(6-oxopiperidin-3-yl)methoxy]-7-(propan-2-yloxy)isoquinoline-6-carboxamide], `CC(C)Oc1cc2c(OC[C@H]3NC(=O)C[C@@H]3C(F)(F)F)nccc2cc1C(N)=O` [Example 155, 1-{[(2S,3S)-5-oxo-3-(trifluoromethyl)pyrrolidin-2-yl]methoxy}-7-(propan-2-yloxy)isoquinoline-6-carboxamide] is 4.6-fold lower in IC50: 1220 nM for the first, 267 nM for the second. The second is the more potent here.

Going from `CC(C)Oc1cc2c(OC[C@@]3(CO)CCC(=O)N3)nccc2cc1C(N)=O` [Example 153, 1-{[(2S)-2-(hydroxymethyl)-5-oxopyrrolidin-2-yl]methoxy}-7-(propan-2-yloxy)isoquinoline-6-carboxamide] to `CC(C)Oc1cc2c(OC[C@]3(CO)CCC(=O)N3)nccc2cc1C(N)=O` [Example 154, 1-{[(2R)-2-(hydroxymethyl)-5-oxopyrrolidin-2-yl]methoxy}-7-(propan-2-yloxy)isoquinoline-6-carboxamide], the IC50 falls from 1480 nM to 17 nM (87-fold).

First: CC(C)Oc1cc2c(O[C@H](C)[C@@H]3CCC(=O)N3)nccc2cc1C(N)=O [Example 156, 1-{(1R)-1-[(2S)-5-oxopyrrolidin-2-yl]ethoxy}-7-(propan-2-yloxy)isoquinoline-6-carboxamide]
Second: CC(C)Oc1cc2c(O[C@@H](C)[C@@H]3CCC(=O)N3)nccc2cc1C(N)=O [Example 157, 1-{(1S)-1-[(2S)-5-oxopyrrolidin-2-yl]ethoxy}-7-(propan-2-yloxy)isoquinoline-6-carboxamide]
The IC50 of the first is 27-fold higher: 4100 nM for the first, 152 nM for the second.

Compared with `CC(C)Oc1c(C(N)=O)cc2ccnc(OC[C@@H]3CCC(=O)N3)c2c1F` [Example 176, 8-fluoro-1-{[(2S)-5-oxopyrrolidin-2-yl]methoxy}-7-(propan-2-yloxy)isoquinoline-6-carboxamide], `NC(=O)c1cc2ccnc(OC[C@@H]3CCC(=O)N3)c2cc1OC(F)(F)F` [Example 178, 1-{[(2S)-5-oxopyrrolidin-2-yl]methoxy}-7-(trifluoromethoxy)isoquinoline-6-carboxamide] is 2.4-fold higher in IC50: 695 nM for the first, 1690 nM for the second. The first is the more potent here.

In the case of `CC(C)Oc1cc2c(OC[C@@H]3C[C@@](O)(CC(F)(F)F)C(=O)N3)nccc2cc1C(N)=O` [Example 182, 1-{[(2S,4R)-4-hydroxy-5-oxo-4-(2,2,2-trifluoroethyl)pyrrolidin-2-yl]methoxy}-7-(propan-2-yloxy)isoquinoline-6-carboxamide], the IC50 is reported as 1050 nM.
